What follows are compounds tested against Folylpolyglutamate synthase (Mus musculus) (assay: Compound was evaluated for the binding affinity to mouse liver folyl polyglutamate synthetase.).

Ki [µM]	Compound
43	Nc1nc(N)c2nc(CNc3ccc(C(=O)NC(CS(=O)(=O)O)C(=O)O)cc3)cnc2n1 (centres undefined) [2-{4-[(2,4-Diamino-pteridin-6-ylmethyl)-amino]-benzoylamino}-3-sulfo-propionic acid]
136	CN(Cc1cnc2nc(N)nc(N)c2n1)c1ccc(C(=O)NC(CS(=O)(=O)O)C(=O)O)cc1 (centres undefined) [2-{4-[(2,4-Diamino-pteridin-6-ylmethyl)-methyl-amino]-benzoylamino}-3-sulfo-propionic acid]
198	CN(Cc1cnc2nc(N)nc(N)c2n1)c1ccc(C(=O)NC(CCS(=O)(=O)O)C(=O)O)cc1 (centres undefined) [2-{4-[(2,4-Diamino-pteridin-6-ylmethyl)-methyl-amino]-benzoylamino}-4-sulfo-butyric acid]
59	Nc1nc(N)c2nc(CNc3ccc(C(=O)NC(CCS(=O)(=O)O)C(=O)O)cc3)cnc2n1 (centres undefined) [2-{4-[(2,4-Diamino-pteridin-6-ylmethyl)-amino]-benzoylamino}-4-sulfo-butyric acid]

Reference: BindingDB's records for doi:10.1021/jm00371a008 (1984)
